Test results: article PMC3674958 (Investigational new drugs, 2012)

Columns and labels:
[1] = Plasma pharmacokinetics of irinotecan and its metabolites; details: human, iv
[2] = clinical; details: human, in vivo, 400 mg
[3] = system: plasma proteins; assay: Sorafenib fraction unbound in patient plasma by equilibrium dialysis; assay type: in vitro ADME; details: human

| Tmax ([1]; 100 mg/m2) | Tmax ([1]; 120 mg/m2) | Cmax ([2]; Cmax) | Tmax ([2]; Tmax) | fraction unbound [3] | SMILES |
| --- | --- | --- | --- | --- | --- |
| 1.4 h | 1.4 h | – | – | – | CCc1c2c(nc3ccc(OC(=O)N4CCC(N5CCCCC5)CC4)cc13)-c1cc3c(c(=O)n1C2)COC(=O)[C@]3(O)CC [Irinotecan] |
| – | – | 4710 ± 3520 ng/mL | 4.1 h | 0.0027 to 0.0067 | CNC(=O)c1cc(Oc2ccc(NC(=O)Nc3ccc(Cl)c(C(F)(F)F)c3)cc2)ccn1 [Sorafenib, reference compound] |
